Values of other authors, collected in patent US20050090475A1, “Extended triphasic contraceptive regimens” (priority 2003, published 2005).

Legend:
[1] = target: T1, endometrial progesterone receptors (Homo sapiens, UniProt P06401)
T1 sequence (P06401 1-933): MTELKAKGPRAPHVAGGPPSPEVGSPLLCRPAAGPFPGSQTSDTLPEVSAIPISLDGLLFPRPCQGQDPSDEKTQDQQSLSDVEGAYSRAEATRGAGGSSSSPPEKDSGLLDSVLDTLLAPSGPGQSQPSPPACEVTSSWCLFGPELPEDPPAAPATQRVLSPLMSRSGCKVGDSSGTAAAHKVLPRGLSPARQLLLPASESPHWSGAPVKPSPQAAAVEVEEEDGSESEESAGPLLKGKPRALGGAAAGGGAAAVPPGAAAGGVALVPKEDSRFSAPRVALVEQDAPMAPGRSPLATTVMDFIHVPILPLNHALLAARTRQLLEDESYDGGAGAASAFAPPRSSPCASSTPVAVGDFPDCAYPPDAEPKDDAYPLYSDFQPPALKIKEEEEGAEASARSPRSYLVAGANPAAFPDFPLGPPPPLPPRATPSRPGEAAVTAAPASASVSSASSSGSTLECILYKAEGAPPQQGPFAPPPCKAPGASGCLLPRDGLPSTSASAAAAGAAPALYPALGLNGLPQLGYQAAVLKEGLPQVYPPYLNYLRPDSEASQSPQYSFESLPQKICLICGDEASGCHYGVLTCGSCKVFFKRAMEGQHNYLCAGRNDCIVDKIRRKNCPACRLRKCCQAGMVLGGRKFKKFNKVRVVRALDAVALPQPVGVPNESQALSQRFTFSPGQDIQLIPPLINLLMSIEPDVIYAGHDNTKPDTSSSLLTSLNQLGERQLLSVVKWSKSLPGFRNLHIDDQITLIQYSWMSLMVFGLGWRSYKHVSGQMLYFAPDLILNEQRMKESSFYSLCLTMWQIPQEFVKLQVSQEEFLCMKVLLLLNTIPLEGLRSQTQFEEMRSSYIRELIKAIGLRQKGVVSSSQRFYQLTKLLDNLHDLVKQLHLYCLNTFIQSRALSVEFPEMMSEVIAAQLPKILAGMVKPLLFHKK

[2] = system: serum hormone binding globulin (SHBG); conditions: in vivo
endometrium = conditions: animal models
[3] = ovariectomized rat, compared with progesterone

affinity for endometrial progesterone receptors [1]: high affinity
effect on serum hormone binding globulin (SHBG) levels [2]: minimal effect
SMILES: C#C[C@]1(OC(C)=O)CC[C@H]2[C@@H]3CCC4=CC(=NO)CC[C@@H]4[C@H]3CC[C@@]21CC (mixture of isomers) [norgestimate]
endometrium in comparison to other, more androgenic, progestins (endometrium): remains relatively thick and supported
maintenance of pregnancy [3]: maintains pregnancy as well as progesterone
